Reference: patent US6054435A, “6-O-substituted macrolides having antibacterial activity” (priority 1999, dated 2000)
Values after ≈ are worked out from the molar mass of the structure shown.

How the values were obtained:
Assay in all cases: in vitro antibacterial activity (MIC), agar dilution
Type in all cases: cell-based
[1] = system: Staphylococcus aureus A-5278; settings: organism code CC; BHI agar, 35-37° C., 20 to 24 hours; unit assumed
Procedure, shortened: (§1)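 Antibacterial MIC determined by agar dilution in BHI agar with twelve successive concentrations; controls comprised compound-free plates and a same-class reference antibiotic. MIC: lowest concentration giving no growth, slight haze or sparsely isolated colonies.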

[2] = system: Streptococcus agalactiae CMX 508; settings: organism code KK; BHI agar, 35-37° C., 20 to 24 hours; unit assumed
Procedure, shortened: as §1

Escherichia coli DC-2 = settings: organism code SS; BHI agar, 35-37° C., 20 to 24 hours; unit assumed
Procedure, shortened: as §1

Escherichia coli JUHL = settings: organism code QQ; BHI agar, 35-37° C., 20 to 24 hours; unit assumed
Procedure, shortened: as §1

[3] = system: Streptococcus Pneumonia GYR 1171; settings: organism code YY; BHI agar, 35-37° C., 20 to 24 hours; unit assumed
Procedure, shortened: as §1

[4] = system: Staphylococcus aureus 1775; settings: organism code GG; BHI agar, 35-37° C., 20 to 24 hours; unit assumed
Procedure, shortened: as §1

[5] = system: Staphylococcus aureus CMX 553; settings: organism code FF; BHI agar, 35-37° C., 20 to 24 hours; unit assumed
Procedure, shortened: as §1

Candida albicans CCH 442 = settings: organism code TT; BHI agar, 35-37° C., 20 to 24 hours; unit assumed
Procedure, shortened: as §1

[6] = system: Streptococcus Pneumonia 5649; settings: organism code ZZA; BHI agar, 35-37° C., 20 to 24 hours; unit assumed
Procedure, shortened: as §1

[7] = system: Mycobacterium smegmatis ATCC 114; settings: organism code UU; BHI agar, 35-37° C., 20 to 24 hours; unit assumed
Procedure, shortened: as §1

[8] = system: Nocardia Asteroides ATCC9970; settings: organism code VV; BHI agar, 35-37° C., 20 to 24 hours; unit assumed
Procedure, shortened: as §1

[9] = system: Enterococcus faecium ATCC 8043; settings: organism code II; BHI agar, 35-37° C., 20 to 24 hours; unit assumed
Procedure, shortened: as §1

[10] = system: Staphylococcus aureus CMX 642A; settings: organism code DD; BHI agar, 35-37° C., 20 to 24 hours; unit assumed
Procedure, shortened: as §1

[11] = system: Staphylococcus epidermidis 3519; settings: organism code HH; BHI agar, 35-37° C., 20 to 24 hours; unit assumed
Procedure, shortened: as §1

[12] = system: Micrococcus luteus ATCC 4698; settings: organism code PP; BHI agar, 35-37° C., 20 to 24 hours; unit assumed
Procedure, shortened: (§2)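 Agar dilution on BHI agar with twelve successive compound dilutions; plates inoculated by Steers replicator with 1:100 culture dilutions (1:10 for slow growers such as Streptococcus). MIC is the lowest concentration giving no growth, slight haze or sparse colonies versus a drug-free control.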

[13] = system: Streptococcus bovis A-5169; settings: organism code JJ; BHI agar, 35-37° C., 20 to 24 hours; unit assumed
Procedure, shortened: as §1

[14] = system: Staphylococcus aureus A5177; settings: organism code BB; BHI agar, 35-37° C., 20 to 24 hours; unit assumed
Procedure, shortened: as §1

[15] = system: Streptococcus Pneumonia 5979; settings: organism code ZZ; BHI agar, 35-37° C., 20 to 24 hours; unit assumed
Procedure, shortened: as §1

[16] = system: Staphylococcus aureus NCTC10649M; settings: organism code EE; BHI agar, 35-37° C., 20 to 24 hours; unit assumed
Procedure, shortened: as §1

[17] = system: Streptococcus pyogenes PIU 2548; settings: organism code NN; BHI agar, 35-37° C., 20 to 24 hours; unit assumed
Procedure, shortened: as §1

[18] = system: Streptococcus pyogenes 930; settings: organism code MM; BHI agar, 35-37° C., 20 to 24 hours; unit assumed
Procedure, shortened: as §1

[19] = system: Streptococcus pyogenes EES61; settings: organism code LL; BHI agar, 35-37° C., 20 to 24 hours; unit assumed
Procedure, shortened: as §1

[20] = system: Streptococcus Pneumonia ATCC6303; settings: organism code XX; BHI agar, 35-37° C., 20 to 24 hours; unit assumed
Procedure, shortened: as §1

Escherichia coli SS = settings: organism code RR; BHI agar, 35-37° C., 20 to 24 hours; unit assumed
Procedure, shortened: as §1

[21] = system: Staphylococcus aureus ATCC 6538P; settings: organism code AA; BHI agar, 35-37° C., 20 to 24 hours; unit assumed
Procedure, shortened: as §1

[22] = system: Micrococcus luteus ATCC 9341; settings: organism code OO; BHI agar, 35-37° C., 20 to 24 hours; unit assumed
Procedure, shortened: as §2

[23] = system: Haemophilis Influenzae DILL AMP R; settings: organism code WW; BHI agar, 35-37° C., 20 to 24 hours; unit assumed
Procedure, shortened: as §1

| Structure (SMILES) | MIC [1] [µg/mL] | MIC [2] [µg/mL] | MIC (Escherichia coli DC-2) [µg/mL] | MIC (Escherichia coli JUHL) [µg/mL] | MIC [3] [µg/mL] | MIC [4] [µg/mL] | MIC [5] [µg/mL] | MIC (Candida albicans CCH 442) [µg/mL] | MIC [6] [µg/mL] | MIC [7] [µg/mL] | MIC [8] [µg/mL] | MIC [9] [µg/mL] | MIC [10] [µg/mL] | MIC [11] [µg/mL] | MIC [12] [µg/mL] | MIC [13] [µg/mL] | MIC [14] [µg/mL] | MIC [15] [µg/mL] | MIC [16] [µg/mL] | MIC [17] [µg/mL] | other results |
| --- | --- | --- | --- | --- | --- | --- | --- | --- | --- | --- | --- | --- | --- | --- | --- | --- | --- | --- | --- | --- | --- |
| CC[C@H]1OC(=O)[C@H](C)C(=O)[C@H](C)[C@@H](O[C@@H]2O[C@H](C)C[C@H](N(C)C)[C@H]2O)[C@](C)(OC/C=C/c2cncc(-c3cncs3)c2)C[C@@H](C)C(=O)[C@H](C)[C@H]2NC(=O)O[C@@]21C [Example 52] | > 100 | ≤ 0.005 | 25 (≈ 31.3 µM) | 100 (≈ 125 µM) | ≤ 0.004 | > 100 | 0.05 (≈ 0.0626 µM) | > 100 | 0.25 (≈ 0.313 µM) | 1.56 (≈ 1.95 µM) | 0.02 (≈ 0.025 µM) | 0.01 (≈ 0.0125 µM) | 0.05 (≈ 0.0626 µM) | 0.05 (≈ 0.0626 µM) | 0.2 (≈ 0.25 µM) | 0.01 (≈ 0.0125 µM) | 0.05 (≈ 0.0626 µM) | > 128 | 0.05 (≈ 0.0626 µM) | 0.1 (≈ 0.125 µM) | MIC [18]: 100 µg/mL (≈ 125 µM); MIC [19]: 0.02 µg/mL (≈ 0.025 µM); MIC [20]: ≤ 0.004 µg/mL; MIC (Escherichia coli SS): 0.39 µg/mL (≈ 0.488 µM); MIC [21]: 0.05 µg/mL (≈ 0.0626 µM); MIC [22]: 0.01 µg/mL (≈ 0.0125 µM); MIC [23]: 2 µg/mL (≈ 2.5 µM) |
| CC[C@H]1OC(=O)[C@H](C)C(=O)[C@H](C)[C@@H](O[C@@H]2O[C@H](C)C[C@H](N(C)C)[C@H]2O)[C@](C)(OCC#Cc2ccc(-c3cncnc3)s2)C[C@@H](C)C(=O)[C@H](C)[C@H]2NC(=O)O[C@@]21C [Example 4] | > 100 | 0.01 (≈ 0.0125 µM) | 50 (≈ 62.7 µM) | 50 (≈ 62.7 µM) | 0.03 (≈ 0.0376 µM) | > 100 | 0.1 (≈ 0.125 µM) | > 100 | 0.5 (≈ 0.627 µM) | 0.78 (≈ 0.979 µM) | 0.02 (≈ 0.0251 µM) | 0.02 (≈ 0.0251 µM) | 0.1 (≈ 0.125 µM) | 0.1 (≈ 0.125 µM) | 0.05 (≈ 0.0627 µM) | ≤ 0.005 | 0.1 (≈ 0.125 µM) | 2 (≈ 2.51 µM) | 0.1 (≈ 0.125 µM) | 0.1 (≈ 0.125 µM) | MIC [18]: 12.5 µg/mL (≈ 15.7 µM); MIC [19]: 0.01 µg/mL (≈ 0.0125 µM); MIC [20]: 0.03 µg/mL (≈ 0.0376 µM); MIC (Escherichia coli SS): 0.39 µg/mL (≈ 0.489 µM); MIC [21]: 0.1 µg/mL (≈ 0.125 µM); MIC [22]: 0.01 µg/mL (≈ 0.0125 µM); MIC [23]: 2 µg/mL (≈ 2.51 µM) |
| CC[C@H]1OC(=O)[C@H](C)C(=O)[C@H](C)[C@@H](O[C@@H]2O[C@H](C)C[C@H](N(C)C)[C@H]2O)[C@](C)(OCC#Cc2ccc(-c3ncccn3)s2)C[C@@H](C)C(=O)[C@H](C)[C@H]2NC(=O)O[C@@]21C [Example 5] | > 100 | 0.01 (≈ 0.0125 µM) | 25 (≈ 31.4 µM) | 25 (≈ 31.4 µM) | 0.03 (≈ 0.0376 µM) | > 100 | 0.02 (≈ 0.0251 µM) | > 100 | 0.25 (≈ 0.314 µM) | 0.78 (≈ 0.979 µM) | 0.01 (≈ 0.0125 µM) | 0.02 (≈ 0.0251 µM) | 0.05 (≈ 0.0627 µM) | 0.05 (≈ 0.0627 µM) | 0.1 (≈ 0.125 µM) | ≤ 0.005 | 0.05 (≈ 0.0627 µM) | 0.5 (≈ 0.627 µM) | 0.05 (≈ 0.0627 µM) | 0.1 (≈ 0.125 µM) | MIC [18]: 25 µg/mL (≈ 31.4 µM); MIC [19]: ≤ 0.005 µg/mL; MIC [20]: 0.03 µg/mL (≈ 0.0376 µM); MIC (Escherichia coli SS): 0.1 µg/mL (≈ 0.125 µM); MIC [21]: 0.02 µg/mL (≈ 0.0251 µM); MIC [22]: 0.01 µg/mL (≈ 0.0125 µM); MIC [23]: 2 µg/mL (≈ 2.51 µM) |
| CC[C@H]1OC(=O)[C@H](C)C(=O)[C@H](C)[C@@H](O[C@@H]2O[C@H](C)C[C@H](N(C)C)[C@H]2O)[C@](C)(OC/C=C/c2nc(-c3cccnc3)cs2)C[C@@H](C)C(=O)[C@H](C)[C@H]2NC(=O)O[C@@]21C [Example 65] | > 100 | 0.01 (≈ 0.0125 µM) | 25 (≈ 31.3 µM) | 100 (≈ 125 µM) | ≤ 0.004 | > 100 | 0.1 (≈ 0.125 µM) | > 100 | 0.25 (≈ 0.313 µM) | 0.78 (≈ 0.976 µM) | 0.02 (≈ 0.025 µM) | 0.02 (≈ 0.025 µM) | 0.1 (≈ 0.125 µM) | 0.1 (≈ 0.125 µM) | 0.1 (≈ 0.125 µM) | ≤ 0.005 | 0.1 (≈ 0.125 µM) | > 128 | 0.1 (≈ 0.125 µM) | 0.1 (≈ 0.125 µM) | MIC [18]: 50 µg/mL (≈ 62.6 µM); MIC [19]: 0.01 µg/mL (≈ 0.0125 µM); MIC [20]: 0.008 µg/mL (≈ 0.01 µM); MIC (Escherichia coli SS): 0.2 µg/mL (≈ 0.25 µM); MIC [21]: 0.1 µg/mL (≈ 0.125 µM); MIC [22]: 0.02 µg/mL (≈ 0.025 µM); MIC [23]: 2 µg/mL (≈ 2.5 µM) |
| CC[C@H]1OC(=O)[C@H](C)C(=O)[C@H](C)[C@@H](O[C@@H]2O[C@H](C)C[C@H](N(C)C)[C@H]2O)[C@](C)(OC/C=C/c2ccc(-c3cnc(N)s3)s2)C[C@@H](C)C(=O)[C@H](C)[C@H]2NC(=O)O[C@@]21C [Example 53] | > 100 | 0.01 (≈ 0.0122 µM) | 25 (≈ 30.5 µM) | 50 (≈ 61 µM) | 0.03 (≈ 0.0366 µM) | > 100 | 0.1 (≈ 0.122 µM) | > 100 | 1 (≈ 1.22 µM) | 3.1 (≈ 3.78 µM) | 0.1 (≈ 0.122 µM) | 0.05 (≈ 0.061 µM) | 0.1 (≈ 0.122 µM) | 0.1 (≈ 0.122 µM) | 0.1 (≈ 0.122 µM) | 0.01 (≈ 0.0122 µM) | 0.1 (≈ 0.122 µM) | 16 (≈ 19.5 µM) | 0.1 (≈ 0.122 µM) | 0.1 (≈ 0.122 µM) | MIC [18]: 12.5 µg/mL (≈ 15.3 µM); MIC [19]: ≤ 0.005 µg/mL; MIC [20]: 0.03 µg/mL (≈ 0.0366 µM); MIC (Escherichia coli SS): 0.2 µg/mL (≈ 0.244 µM); MIC [21]: 0.1 µg/mL (≈ 0.122 µM); MIC [22]: 0.01 µg/mL (≈ 0.0122 µM); MIC [23]: 8 µg/mL (≈ 9.77 µM) |
